Data published in ChEMBL document CHEMBL4411258, “Novel natural compounds from endophytic fungi with anticancer activity” (Eur J Med Chem, 2018).
pIC50: −log10 of the molar value. Values after ≈ are worked out from the molar mass of the structure shown.

What was measured:
[1] = system: MDA-MB-435; test: Cytotoxicity against human MDA-MB-435 cells by MTT assay; type: functional, cell-based
[2] = system: SGC-7901; test: Cytotoxicity against human SGC7901 cells by MTT assay; type: functional, cell-based
[3] = system: A549; test: Cytotoxicity against human A549 cells by MTT assay; type: functional, cell-based
[4] = Inhibition of TNFalpha-induced NFkappaB (unknown origin) activation expressed in HEK293 cells preincubated for 1 hr followed by TNFalpha stimulation and measured after 1 hr by dual luciferase reporter gene assay; type: cell-based; settings: Homo sapiens
[5] = system: KB; test: Cytotoxicity against human KB cells by MTT assay; type: functional, cell-based
[6] = system: A2780; test: Cytotoxicity against human A2780 cells by MTT assay; type: functional, cell-based
[7] = system: HL-60; test: Cytotoxicity against human HL60 cells by MTT assay; type: functional, cell-based
[8] = Cytotoxicity against human Tca8113 cells after 72 hrs by MTT assay; type: functional, cell-based
[9] = system: MG-63; test: Cytotoxicity against human MG63 cells after 72 hrs by MTT assay; type: functional, cell-based; settings: MG-63, 72 h
[10] = system: L5178Y; test: Cytotoxicity against mouse L5178Y cells by MTT assay; type: functional, cell-based
[11] = system: PC-12; test: Cytotoxicity against rat PC12 cells by MTT assay; type: functional, cell-based
[12] = target: Polyunsaturated fatty acid 5-lipoxygenase (Homo sapiens) (UniProt P09917); test: Inhibition of 5-LOX (unknown origin) at 30 ug/ml relative to control
Chain of Polyunsaturated fatty acid 5-lipoxygenase (Homo sapiens) (P09917 whole entry): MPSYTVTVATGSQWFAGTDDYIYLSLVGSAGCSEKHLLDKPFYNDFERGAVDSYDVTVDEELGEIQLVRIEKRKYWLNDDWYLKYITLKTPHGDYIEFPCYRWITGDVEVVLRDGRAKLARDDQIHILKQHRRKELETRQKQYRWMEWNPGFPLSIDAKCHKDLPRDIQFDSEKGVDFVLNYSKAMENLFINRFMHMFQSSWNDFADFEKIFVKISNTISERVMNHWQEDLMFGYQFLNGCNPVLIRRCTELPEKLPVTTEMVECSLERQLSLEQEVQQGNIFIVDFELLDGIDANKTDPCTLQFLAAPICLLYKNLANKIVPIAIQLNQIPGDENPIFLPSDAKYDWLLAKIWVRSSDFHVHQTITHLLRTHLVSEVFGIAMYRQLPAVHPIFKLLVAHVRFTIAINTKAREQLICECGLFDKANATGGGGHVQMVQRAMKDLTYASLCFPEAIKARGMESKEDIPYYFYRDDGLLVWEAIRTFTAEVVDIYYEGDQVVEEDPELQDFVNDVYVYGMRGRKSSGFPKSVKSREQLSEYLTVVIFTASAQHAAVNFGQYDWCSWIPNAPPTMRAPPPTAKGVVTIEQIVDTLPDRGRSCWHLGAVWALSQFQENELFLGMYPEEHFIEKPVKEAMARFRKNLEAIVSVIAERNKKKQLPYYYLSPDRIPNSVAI

[13] = system: HepG2; test: Cytotoxicity against human HepG2 cells after 72 hrs by MTT assay; type: functional, cell-based; settings: HepG2, 72 h
[14] = system: HCT-116; test: Cytotoxicity against human HCT116 cells after 72 hrs by MTT assay; type: functional, cell-based; settings: HCT-116, 72 h
[15] = system: MDA-MB-435; test: Cytotoxicity against human MDA-MB-435 cells after 72 hrs by MTT assay; type: functional, cell-based; settings: MDA-MB-435, 72 h
[16] = system: NB-4; test: Cytotoxicity against human NB4 cells by MTT assay; type: functional, cell-based
[17] = system: MCF7; test: Cytotoxicity against human MCF7 cells by MTT assay; type: functional, cell-based
[18] = system: SH-SY5Y; test: Cytotoxicity against human SH-SY5Y cells by MTT assay; type: functional, cell-based
[19] = system: KB; test: Cytotoxicity against human KB cells after 48 hrs by neutral red dye based assay; type: functional, cell-based
[20] = system: SK-OV-3; test: Cytotoxicity against human SKOV3 cells after 48 hrs by neutral red dye based assay; type: functional, cell-based; settings: SK-OV-3, 48 h
[21] = system: BT-549; test: Cytotoxicity against human BT549 cells after 48 hrs by neutral red dye based assay; type: functional, cell-based; settings: BT-549, 48 h
[22] = system: NCI-H460; test: Cytotoxicity against human NCI-H460 cells; type: functional, cell-based
[23] = system: RPMI-8226; test: Cytotoxicity against human RPMI8226 cells after 48 hrs by MTT assay; type: functional, cell-based; settings: RPMI-8226, 48 h
[24] = system: MKN-45; test: Cytotoxicity against human MKN45 cells after 24 hrs by MTT assay; type: functional, cell-based; settings: MKN-45, 24 h
[25] = system: A549; test: Cytotoxicity against human A549 cells after 24 hrs by MTT assay; type: functional, cell-based; settings: A549, 24 h
[26] = system: HL-60; test: Cytotoxicity against human HL60 cells after 24 hrs by MTT assay; type: functional, cell-based; settings: HL-60, 24 h
[27] = system: LoVo; test: Cytotoxicity against human LoVo cells after 24 hrs by MTT assay; type: functional, cell-based
[28] = system: T47D; test: Cytotoxicity against human T47D cells after 48 hrs by MTT assay; type: functional, cell-based
[29] = system: L02; test: Cytotoxicity against human L02 cells by MTS assay; type: cell-based
[30] = system: HepG2; test: Cytotoxicity against human HepG2 cells by MTT assay; type: functional, cell-based
[31] = system: HCT-116; test: Cytotoxicity against human HCT116 cells by MTT assay; type: functional, cell-based
[32] = system: HeLa; test: Cytotoxicity against human HeLa cells by MTT assay; type: functional, cell-based
[33] = system: HepG2; test: Cytotoxicity against human HepG2 cells after 24 hrs by MTT assay; type: functional, cell-based; settings: HepG2, 24 h
[34] = system: MOLT-3; test: Cytotoxicity against human MOLT3 cells by XTT assay; type: functional, cell-based

Compound `CC1=C[C@@H]2/C=C/C[C@H](C)/C=C(\C)C(=O)C(=O)/C=C/C(=O)[C@]23C(=O)N[C@H]2Cc4c([nH]c5ccccc45)[C@@]1(C)[C@@H]23` has a pIC50 [1] of 5.33, a pIC50 [2] of 5.27 and a pIC50 [3] of 5.06.

`CO[C@]12OC[C@@H](C)[C@H]1C[C@]1(C)[C@@H](C)CC[C@H](O)[C@@]13O[C@@H]23` showed a pIC50 [4] of 4.72.

For `CC1=C[C@@H]2/C=C/C[C@H](C)/C=C(\C)CC(=O)/C=C/C(=O)[C@]23C(=O)N[C@@H](Cc2c[nH]c4ccccc24)[C@@H]3[C@@H]1C` [PROCHEATOGLOBOSIN II], the pIC50 [1] was 4.43, the pIC50 [2] was 4.42 and the pIC50 [3] was 4.44.

With `COC(=O)c1cc(OC)cc(OC)c1C(=O)c1coc2c1OC(C)CC2=O` (centres undefined) the pIC50 [5] was 5.33.

With `C/C=C(\C)[C@H]1[C@@H](/C=C/C=C(\C)[C@@H](O)[C@@H](C)C(C)O)[C@@H]2C[C@@H](OC(=O)Cc3ccccc3)[C@](C)(O)C[C@H]2[C@@H]2O[C@@]21C` (some centres undefined) the pIC50 [6] was 4.90.

For `COC1=C2c3cc(OC)cc(O)c3C(=O)O[C@]2(C)CC1=O`, the pIC50 [7] was 4.12.

With `CC(C)(O)C(O)COc1ccc(CCO)cc1` (centres undefined) the pIC50 [8] was 4.59 and the pIC50 [9] was 4.46.

Work on `CCCCCCCCCCC[C@@H](C)[C@@H]1CC(=O)N[C@@H]([C@H](C)O)C(=O)N[C@@H](C)C(=O)N[C@H](C)C(=O)N[C@@H](CCC(N)=O)C(=O)N[C@H](Cc2ccc(O)cc2)C(=O)N[C@@H]([C@@H](C)CC)C(=O)O1` yielded a pIC50 [10] of 5.24 and a pIC50 [11] of 5.02.

Compound `CCCCC(O)/C=C/C1=C(CO)[C@@H](O)[C@@H](O)[C@](Cl)(C/C=C(\C)C(=O)O)C1=O` (some centres undefined) has an inhibition [12] of 48.3%.

For `O=Cc1cc(/C=C/c2cc(O)cc(O)c2C=O)ccc1O`, the pIC50 [13] was > 4.30, the pIC50 [14] was > 4.30 and the pIC50 [15] was > 4.30.

In the case of `COC(=O)[C@@H]1c2c(oc3cc(CO)cc(OC)c3c2=O)C=C[C@H]1O`, the pIC50 [16] was 5.07, the pIC50 [17] was 5.06 and the pIC50 [3] was 5.24. The pIC50 [18] was 5.31.

For `O=Cc1c(O)cc(O)cc1/C=C/c1ccc(O)cc1`, the pIC50 [13] was > 4.30, the pIC50 [14] was > 4.30 and the pIC50 [15] was > 4.30.

`C=C(CC[C@@H](C)[C@H]1CC=C2C3=C([C@@H](O)[C@H](OC(C)=O)[C@@]21C)[C@@]1(C)C[C@@H](OC(C)=O)[C@H](OC(C)=O)C(C)(C)[C@@H]1CC3)C(C)C` showed a pIC50 [19] of 6.74, a pIC50 [20] of 5.88 and a pIC50 [21] of 5.74.

`C=CC1(C)c2[nH]c3cc4c(cc3c2C[C@H]2C(=O)N3CCC[C@H]3C(=O)N21)C=CC(C)(C)O4` (some centres undefined) gave a pIC50 [22] of 4.16.

With `CC(C)=C1CC[C@@]2(C)OC3=C(C[C@@H]12)C(=O)[C@]1(O)CO[C@H]3C1` the pIC50 [23] was 4.08.

For `CCCC[C@H](O)C(=O)C/C(=C\C(=O)O)OC`, the pIC50 [24] was > 3.70, the pIC50 [25] was > 3.70 and the pIC50 [26] was > 3.70. The pIC50 [27] was > 3.70.

Compound `C[C@@H]1CC[C@@H]2[C@@H](C)C(=O)O[C@@H]2[C@@]12C=C(CO)CC2` has a pIC50 [8] of 5.00 and a pIC50 [9] of 7.26.

`C=CC1=CC2=CC(=O)[C@](C)(OC(=O)/C=C/C(C)=C/[C@@H](C)CCCC)C(=O)C2=CO1` showed a pIC50 [28] of 5.00 to 6.00.

In the case of `COC(=O)[C@]1(Cc2ccc(O)c(CC(C)=O)c2)OC(=O)C(O)=C1c1ccc(OC)cc1`, the pIC50 [16] was > 5.00, the pIC50 [29] was > 5.00 and the pIC50 [30] was > 5.00. The pIC50 [18] was > 5.00.

For `CC1=C2[C@@H](O)C[C@@]2(C)[C@@H]2C[C@@H]3CC[C@@H](C)[C@@]2(CC1)C3(C)C`, the pIC50 [5] was 4.60 and the pIC50 [31] was 4.60.

For `CCCCc1c(OC)cc(=O)oc1C`, the pIC50 [3] was 4.41, the pIC50 [31] was 4.35 and the pIC50 [32] was 4.57.

Work on `CC(=O)OC(CC=C(C)C)C[C@@]1(C)CCC[C@H]2[C@@]3(C)C=CC(=O)[C@@H](C)[C@@H]3[C@H](OC(C)=O)C(=O)[C@@]21C` (some centres undefined) yielded a pIC50 [33] of 3.85.

Work on `C/C(=C\C=C\[C@H](O)[C@@H](C)O)[C@H](O)[C@H](C)C(=O)O[C@H]1C[C@H](C)C[C@@H]2C=C[C@H](C)[C@](C)(C(=O)CCO)[C@@H]12` yielded an IC50 [34] of 37.3 µg/mL (≈ 75.7 µM).

With `CCCC[C@H](C)/C=C(C)/C=C/C(=O)O` the pIC50 [28] was 5.00 to 6.00.
